Laboratory results taken from patent US8859574B2 (IRM LLC, priority 2008, dated 2014).

target: T1, IGF-1R Ba/F3 (Homo sapiens, UniProt P08069); assay: Ba/F3 Cell Viability Inhibition Assay (IGF-1R Ba/F3); format: cell-based, murine; details: Tel-TK transformed Ba/F3 cells, 48 hours, Britelite luminescence
T1 construct: fused on or other part: TEL- (or BCR-) IGF-1R in Ba/F3: the kinase part holds the site
Summary of the method: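 A 48 h compound treatment at 37 °C (3750 cells/well) was followed by Britelite luminescence to measure viability. Cells were Ba/F3 pro-B cells, IL-3-independent via TEL-fused IGF-1R kinase transduction. A logistic fit gave IC50 as 50% viability relative to DMSO control.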

T1 sequence (P08069 999-1274 limits assumed): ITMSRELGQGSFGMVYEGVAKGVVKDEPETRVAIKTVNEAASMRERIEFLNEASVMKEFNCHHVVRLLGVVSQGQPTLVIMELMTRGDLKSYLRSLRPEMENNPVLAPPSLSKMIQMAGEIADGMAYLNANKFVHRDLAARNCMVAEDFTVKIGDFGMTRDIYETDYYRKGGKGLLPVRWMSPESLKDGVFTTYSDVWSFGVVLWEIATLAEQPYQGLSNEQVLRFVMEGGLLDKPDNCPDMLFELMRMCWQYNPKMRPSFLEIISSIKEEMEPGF

SMILES	IC50 [nM]
Cc1cc(Nc2nc(Nc3cc(C)c(C4CCN(CC(N)=O)CC4)cc3F)ncc2Cl)n[nH]1 [Compound 39, 2-(4-(4-(5-Chloro-4-(5-methyl-1H-pyrazol-3-ylamino)pyrimidin-2-ylamino)-5-fluoro-2-methylphenyl)piperidin-1-yl)acetamide]	19
Cc1cc(Nc2nc(Nc3cc(C)c(C4CCN(C(=O)CN5CCOCC5)CC4)cc3F)ncc2Cl)n[nH]1 [Compound 97, 1-(4-(4-(5-chloro-4-(5-methyl-1H-pyrazol-3-ylamino)pyrimidin-2-ylamino)-5-fluoro-2-methylphenyl)piperidin-1-yl)-2-morpholinoethanone]	20
Cc1cc(Nc2nc(Nc3cc(C)c(C4CCN(C(=O)CN)CC4)cc3F)ncc2Cl)n[nH]1 [Compound 79, 2-amino-1-(4-(4-(5-chloro-4-(5-methyl-1H-pyrazol-3-ylamino)pyrimidin-2-ylamino)-5-fluoro-2-methylphenyl)piperidin-1-yl)ethanone]	75
CC[N+]1([O-])CCC(c2cc(F)c(Nc3ncc(Cl)c(Nc4cc(C)[nH]n4)n3)cc2C)CC1 (centres unmarked) [Compound 289, 4-(4-(5-chloro-4-(5-methyl-1H-pyrazol-3-ylamino)pyrimidin-2-ylamino)-5-fluoro-2-methylphenyl)-1-ethylpiperidine-1-oxide]	370
Cc1cc(Nc2nc(Nc3cc(C)c(C4CCN(Cc5noc(C(C)(C)C)n5)CC4)cc3C)ncc2Cl)n[nH]1 [Compound 266, N2-(4-(1-((5-tert-butyl-1,2,4-oxadiazol-3-yl)methyl)piperidin-4-yl)-2,5-dimethylphenyl)-5-chloro-N4-(5-methyl-1H-pyrazol-3-yl)pyrimidine-2,4-diamine]	25
Cc1cc(Nc2nc(Nc3cc(C)c(C4CCN(C(=O)N5CCNC5=O)CC4)cc3C)ncc2Cl)n[nH]1 [Compound 113, 1-(4-(4-(5-chloro-4-(5-methyl-1H-pyrazol-3-ylamino)pyrimidin-2-ylamino)-2,5-dimethylphenyl)piperidine-1-carbonyl)imidazolidin-2-one]	13
Cc1cc(Nc2nc(Nc3cc(C)c(C4CCN(CCCS(=O)(=O)N5CCCC5)CC4)cc3F)ncc2Cl)n[nH]1 [Compound 244, 5-chloro-N2-(2-fluoro-5-methyl-4-(1-(3-(pyrrolidin-1-ylsulfonyl)propyl)piperidin-4-yl)phenyl)-N4-(5-methyl-1H-pyrazol-3-yl)pyrimidine-2,4-diamine]	84
Cc1noc(CN2CCC(c3cc(F)c(Nc4ncc(Cl)c(Nc5cc(C)[nH]n5)n4)cc3C)CC2)n1 [Compound 293, 5-chloro-N2-(2-fluoro-5-methyl-4-(1-((3-methyl-1,2,4-oxadiazol-5-yl)methyl)piperidin-4-yl)phenyl)-N4-(5-methyl-1H-pyrazol-3-yl)pyrimidine-2,4-diamine]	26
CCc1cc(Nc2nc(Nc3cc(C)c(C4CCN(CC(N)=O)CC4)cc3F)ncc2Cl)n[nH]1 [Compound 263, 2-(4-(4-(5-chloro-4-(5-ethyl-1H-pyrazol-3-ylamino)pyrimidin-2-ylamino)-5-fluoro-2-methylphenyl)piperidin-1-yl)acetamide]	33
Cc1cc(Nc2nc(Nc3cc(C)c(C4CCNCC4)cc3C)ncc2Cl)n[nH]1 [Compound 256, 5-chloro-N2-(2,5-dimethyl-4-(piperidin-4-yl)phenyl)-N4-(5-methyl-1H-pyrazol-3-yl)pyrimidine-2,4-diamine]	44
Cc1cc(Nc2nc(Nc3cc(C)c(C4CCN(CCCC(=O)N5CCOCC5)CC4)cc3F)ncc2Cl)n[nH]1 [Compound 246, 4-(4-(4-(5-Chloro-4-(5-methyl-1H-pyrazol-3-ylamino)pyrimidin-2-ylamino)-5-fluoro-2-methylphenyl)piperidin-1-yl)-1-morpholinobutan-1-one]	58
COc1cc(Nc2ncc(Cl)c(Nc3cc(C)[nH]n3)n2)c(C)cc1C1CCN(C)CC1 [Compound 219, 5-chloro-N2-(5-methoxy-2-methyl-4-(1-methylpiperidin-4-yl)phenyl)-N4-(5-methyl-1H-pyrazol-3-yl)pyrimidine-2,4-diamine]	9
Cc1cc(C2CCN(C3CC3)CC2)c(C)cc1Nc1ncc(Cl)c(Nc2cc(C3CC3)[nH]n2)n1 [Compound 258, 5-chloro-N4-(5-cyclopropyl-1H-pyrazol-3-yl)-N2-(4-(1-cyclopropylpiperidin-4-yl)-2,5-dimethylphenyl)pyrimidine-2,4-diamine]	26
Cc1cc(Nc2nc(Nc3cc(C)c(C4CCN(C(=O)CN5CCC5)CC4)cc3F)ncc2Cl)n[nH]1 [Compound 98, 2-(azetidin-1-yl)-1-(4-(4-(5-chloro-4-(5-methyl-1H-pyrazol-3-ylamino)pyrimidin-2-ylamino)-5-fluoro-2-methylphenyl)piperidin-1-yl)ethanone]	64
Cc1cc(Nc2nc(Nc3cc(C)c(C4CCN(C(=O)C5CCN(C)CC5)CC4)cc3F)ncc2Cl)n[nH]1 [Compound 118, (4-(4-(5-chloro-4-(5-methyl-1H-pyrazol-3-ylamino)pyrimidin-2-ylamino)-5-fluoro-2-methylphenyl)piperidin-1-yl)(1-methylpiperidin-4-yl)methanone]	81
Cc1cc(Nc2nc(Nc3cc(C)c(C4CCN(C(=O)[C@H]5CCCN5C)CC4)cc3F)ncc2Cl)n[nH]1 [Compound 134, (R)-(4-(4-(5-chloro-4-(5-methyl-1H-pyrazol-3-ylamino)pyrimidin-2-ylamino)-5-fluoro-2-methylphenyl)piperidin-1-yl)(1-methylpyrrolidin-2-yl)methanone]	21
CNC(C)(C)C(=O)N1CCC(c2cc(F)c(Nc3ncc(Cl)c(Nc4cc(C)[nH]n4)n3)cc2C)CC1 [Compound 87, 1-(4-(4-(5-chloro-4-(5-methyl-1H-pyrazol-3-ylamino)pyrimidin-2-ylamino)-5-fluoro-2-methylphenyl)piperidin-1-yl)-2-methyl-2-(methylamino)propan-1-one]	17
Cc1cc(Nc2nc(Nc3cc(C)c(C4CCN(C(=O)[C@@H]5CC(O)CN5C)CC4)cc3F)ncc2Cl)n[nH]1 (stereo partly drawn) [Compound 128, (4-(4-(5-chloro-4-(5-methyl-1H-pyrazol-3-ylamino)pyrimidin-2-ylamino)-5-fluoro-2-methylphenyl)piperidin-1-yl)((2S)-4-hydroxy-1-methylpyrrolidin-2-yl)methanone]	175
Cc1cc(Nc2nc(Nc3cc(C)c(C4CCN(C5=CC(=O)CC5)CC4)cc3F)ncc2Cl)n[nH]1 [Compound 282, 3-(4-(4-(5-Chloro-4-(5-methyl-1H-pyrazol-3-ylamino)pyrimidin-2-ylamino)-5-fluoro-2-methylphenyl)piperidin-1-yl)cyclopent-2-en-one]	48
Cc1cc(Nc2nc(Nc3cc(C)c(C4CC[N+]([O-])(C5CCOCC5)CC4)cc3F)ncc2Cl)n[nH]1 (centres unmarked) [Compound 294, 4-(4-(5-chloro-4-(5-methyl-1H-pyrazol-3-ylamino)pyrimidin-2-ylamino)-5-fluoro-2-methylphenyl)-1-(tetrahydro-2H-pyran-4-yl)piperidine 1-oxide]	64
COC(=O)c1cc(Nc2ncc(Cl)c(Nc3cc(C)[nH]n3)n2)c(C)cc1C1CCN(C)CC1 [Compound 287, methyl 5-(5-chloro-4-(5-methyl-1H-pyrazol-3-ylamino)pyrimidin-2-ylamino)-4-methyl-2-(1-methylpiperidin-4-yl)benzoate]	27
Cc1cc(C2CCNCC2)c(C)cc1Nc1ncc(Cl)c(Nc2cc(C(F)(F)F)[nH]n2)n1 [Compound 215, 5-chloro-N2-(2,5-dimethyl-4-(piperidin-4-yl)phenyl)-N4-(5-(trifluoromethyl)-1H-pyrazol-3-yl)pyrimidine-2,4-diamine]	47
Cc1cc(Nc2nc(Nc3cc(C)c(C4CCCCN4)cc3C)ncc2Cl)n[nH]1 (centres unmarked) [Compound 14, 5-chloro-N2-(2,5-dimethyl-4-(piperidin-2-yl)phenyl)-N4-(5-methyl-1H-pyrazol-3-yl)pyrimidine-2,4-diamine]	16
CNC(=O)CN1CCC(c2cc(F)c(Nc3ncc(Cl)c(Nc4cc(C)[nH]n4)n3)cc2C)CC1 [Compound 42, 2-(4-(4-(5-chloro-4-(5-methyl-1H-pyrazol-3-ylamino)pyrimidin-2-ylamino)-5-fluoro-2-methylphenyl)piperidin-1-yl)-N-methylacetamide]	19
Cc1cc(Nc2nc(Nc3cc(C)c(C4CCN(CC(F)(F)F)CC4)cc3F)ncc2Cl)n[nH]1 [Compound 26, 5-chloro-N2-(2-fluoro-5-methyl-4-(1-(2,2,2-trifluoroethyl)piperidin-4-yl)phenyl)-N4-(5-methyl-1H-pyrazol-3-yl)pyrimidine-2,4-diamine]	142
CCNC(=O)C(CC)N1CCC(c2cc(C)c(Nc3ncc(Cl)c(Nc4cc(C)[nH]n4)n3)cc2C)CC1 (centres unmarked) [Compound 190, 2-(4-(4-(5-chloro-4-(5-methyl-1H-pyrazol-3-ylamino)pyrimidin-2-ylamino)-2,5-dimethylphenyl)piperidin-1-yl)-N-ethylbutanamide]	7
Cc1cc(Nc2nc(Nc3cc(C)c(C4CCN(C(N)=O)CC4)cc3C)ncc2Cl)n[nH]1 [Compound 72, 4-(4-(5-chloro-4-(5-methyl-1H-pyrazol-3-ylamino)pyrimidin-2-ylamino)-2,5-dimethylphenyl)piperidine-1-carboxamide]	6
Cc1cc(Nc2nc(Nc3cc(C)c(C4CCN(CCC(=O)N5CCCC5)CC4)cc3C)ncc2Cl)n[nH]1 [Compound 238, 3-(4-(4-(5-chloro-4-(5-methyl-1H-pyrazol-3-ylamino)pyrimidin-2-ylamino)-2,5-dimethylphenyl)piperidin-1-yl)-1-(pyrrolidin-1-yl)propan-1-one]	39
Cc1cc(C2CCN(C(=O)CN(C)C)CC2)c(C)cc1Nc1ncc(Cl)c(Nc2cc(C(F)(F)F)[nH]n2)n1 [Compound 223, 1-(4-(4-(5-chloro-4-(5-(trifluoromethyl)-1H-pyrazol-3-ylamino)pyrimidin-2-ylamino)-2,5-dimethylphenyl)piperidin-1-yl)-2-(dimethylamino)ethanone]	36
